From US11254665B2, “Crystalline sulfamide compound” (CHIA TAI TIANQING PHARMACEUTICAL GROUP CO., LTD., priority 2017, dated 2022)
One block for each compound: values may come before it.

Assays:
[1] = Stability influencing factors: high temperature test; format: physicochemical
Procedure: (§1) In accordance with “Stability Testing of New Drug Substances and Products” in ICH Q1A and “Guidelines for the Stability Testing of Drug Substances and Preparations” in Pharmacopoeia of China, fourth part, 2015 edition, 9001, the stability influencing factors were tested for the crystal of the monohydrate formula II, including high temperature, high humidity and light tests.
(§2) In accordance with “Stability Testing of New Drug Substances and Products” in ICH Q1A and “Guidelines for the Stability Testing of Drug Substances and Preparations” in Pharmacopoeia of China, fourth part, 2015 edition, 9001, the stability influencing factors were tested for the crystal of the compound of formula I, including high temperature and high humidity tests.
(§3) In accordance with “Stability Testing of New Drug Substances and Products” in ICH Q1A and “Guidelines for the Stability Testing of Drug Substances and Preparations” in Pharmacopoeia of China, fourth part, 2015 edition, 9001, the stability influencing factors were tested for the amorphous form of the compound of formula I, including high temperature and high humidity tests.

[2] = Stability influencing factors: high humidity test; format: physicochemical
Procedure: as §1, §2, §3

Appearance ([1]; 0 day): White
Total impurities (%) ([1]; 0 day): 0.28%
Water (%) ([1]; 0 day): 1.4%
Appearance ([1]; 40° C., 5 day): White
Total impurities (%) ([1]; 40° C., 5 day): 0.25%
Water (%) ([1]; 40° C., 5 day): 1.1%
Appearance ([1]; 40° C., 10 day): White
Total impurities (%) ([1]; 40° C., 10 day): 0.28%
Water (%) ([1]; 40° C., 10 day): 1.0%
Appearance ([1]; 40° C., 30 day): White
Total impurities (%) ([1]; 40° C., 30 day): 0.26%
Water (%) ([1]; 40° C., 30 day): 0.8%
Appearance ([1]; 60° C., 5 day): White
Total impurities (%) ([1]; 60° C., 5 day): 0.31%
Water (%) ([1]; 60° C., 5 day): 0.8%
Appearance ([1]; 60° C., 10 day): White
Total impurities (%) ([1]; 60° C., 10 day): 0.27%
Water (%) ([1]; 60° C., 10 day): 0.6%
Appearance ([1]; 60° C., 30 day): White
Total impurities (%) ([1]; 60° C., 30 day): 0.28%
Water (%) ([1]; 60° C., 30 day): 0.5%
Appearance ([2]; 0 day): White
Total impurities (%) ([2]; 0 day): 0.28%
Water (%) ([2]; 0 day): 1.4%
Appearance ([2]; 75% RH, 5 day): White
Total impurities (%) ([2]; 75% RH, 5 day): 0.30%
Water (%) ([2]; 75% RH, 5 day): 1.7%
Appearance ([2]; 75% RH, 10 day): White
Total impurities (%) ([2]; 75% RH, 10 day): 0.30%
Water (%) ([2]; 75% RH, 10 day): 1.8%
Appearance ([2]; 75% RH, 30 day): White
Total impurities (%) ([2]; 75% RH, 30 day): 0.27%
Water (%) ([2]; 75% RH, 30 day): 1.8%
Appearance ([2]; 92.5% RH, 5 day): White
Total impurities (%) ([2]; 92.5% RH, 5 day): 0.30%
Water (%) ([2]; 92.5% RH, 5 day): 2.1%
Appearance ([2]; 92.5% RH, 10 day): White
Total impurities (%) ([2]; 92.5% RH, 10 day): 0.29%
Water (%) ([2]; 92.5% RH, 10 day): 2.3%
Appearance ([2]; 92.5% RH, 30 day): White
Total impurities (%) ([2]; 92.5% RH, 30 day): 0.26%
Water (%) ([2]; 92.5% RH, 30 day): 2.4%
Compound: N#Cc1ccnc(N2[C@H](C(=O)N(c3cccc(F)c3)[C@H](C(=O)NC3CC(F)(F)C3)c3ccccc3Cl)CCS2(=O)=O)c1 [amorphous form of the compound of formula I]

Appearance ([1]; 0 day): White
Total impurities (%) ([1]; 0 day): 0.39%
Water (%) ([1]; 0 day): 0.45%
Appearance ([1]; 40° C., 5 day): White
Total impurities (%) ([1]; 40° C., 5 day): 0.42%
Water (%) ([1]; 40° C., 5 day): 0.85%
Appearance ([1]; 40° C., 12 day): White
Total impurities (%) ([1]; 40° C., 12 day): 0.37%
Water (%) ([1]; 40° C., 12 day): 0.85%
Appearance ([1]; 60° C., 5 day): White
Total impurities (%) ([1]; 60° C., 5 day): 0.63%
Water (%) ([1]; 60° C., 5 day): 0.59%
Appearance ([1]; 60° C., 12 day): White
Total impurities (%) ([1]; 60° C., 12 day): 0.54%
Water (%) ([1]; 60° C., 12 day): 0.73%
Appearance ([2]; 0 day): White
Total impurities (%) ([2]; 0 day): 0.39%
Water (%) ([2]; 0 day): 0.45%
Appearance ([2]; 75% RH, 5 day): White
Total impurities (%) ([2]; 75% RH, 5 day): 0.43%
Water (%) ([2]; 75% RH, 5 day): 0.94%
Appearance ([2]; 75% RH, 12 day): White
Total impurities (%) ([2]; 75% RH, 12 day): 0.37%
Water (%) ([2]; 75% RH, 12 day): 1.16%
Appearance ([2]; 92.5% RH, 5 day): White
Total impurities (%) ([2]; 92.5% RH, 5 day): 0.47%
Water (%) ([2]; 92.5% RH, 5 day): 1.58%
Appearance ([2]; 92.5% RH, 12 day): White
Total impurities (%) ([2]; 92.5% RH, 12 day): 0.37%
Water (%) ([2]; 92.5% RH, 12 day): 1.75%
Compound: N#Cc1ccnc(N2[C@H](C(=O)N(c3cccc(F)c3)[C@H](C(=O)NC3CC(F)(F)C3)c3ccccc3Cl)CCS2(=O)=O)c1 [crystal of the compound of formula I]
